From US20210214385A1, “INHIBITORS OF D-AMINO ACID OXIDASE AND USES THEREOF” (SyneuRx International (Taiwan) Corp., priority 2018, published 2021)
pIC50: −log10 of the molar value. “And” between values parts separate entries of the source, which are not always exact repeats. Identical values can stand only once.

Columns and labels:
[1] = biological target: human D-amino acid oxidase (hDAAO) (Homo sapiens, UniProt P14920); assay: In vitro measurement of human D-amino acid oxidase (hDAAO) activity, D-Serine substrate, Amplex Red fluorescence; format: biochemical
Chain of human D-amino acid oxidase (hDAAO) (P14920 whole entry): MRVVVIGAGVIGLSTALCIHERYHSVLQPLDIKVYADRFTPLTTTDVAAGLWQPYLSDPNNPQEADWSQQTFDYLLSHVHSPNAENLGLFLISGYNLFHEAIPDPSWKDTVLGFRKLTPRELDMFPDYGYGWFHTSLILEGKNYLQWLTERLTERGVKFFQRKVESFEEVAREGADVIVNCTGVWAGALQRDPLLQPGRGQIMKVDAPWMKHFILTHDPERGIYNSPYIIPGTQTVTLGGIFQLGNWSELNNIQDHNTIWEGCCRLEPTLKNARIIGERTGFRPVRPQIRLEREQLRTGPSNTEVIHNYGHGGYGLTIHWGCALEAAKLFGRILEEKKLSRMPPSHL

[2] = Log P, n-octanol/water partition coefficient, HPLC; format: physicochemical
Description: The sample compounds tested in the log P experiments included enriched tannic acid (prepared by the enrichment method 10 of U.S. Ser. No. 10/105,378), compounds 21, 24, 27, 46, and 56. First, n-Octanol and water was saturated with each other to achieve partition equilibrium and the two phases were separated for further use. Sample compounds were dissolved in water and n-octanol phase, respectively. Both phases were mixed by vertical rotation movement. After the water and n-octal phases reached equilibrium state, both phases were analyzed to determine the concentrations of the sample compounds for the determination of log P values. All samples were performed in a Shimadzu CBM-20A FfPLC system. The chromatographic separation was carried out on a 5 μm, Kinetex C18 100 Å LC column (100×4.6 mm). The mobile phase was 0.1% formic acid in water and acetonitrile/Methanol set as gradient. Flow rate used was 1.2 mL/min. Column was at room temperature 20±5° C.
The partition coefficient abbreviated P is calculated based on the concentration in n-octanol divided by the concentration in water. The formula of log P is shown below: […]

pIC50 [1] | logP [2] | SMILES
7.71 and 7.70 | 1.32 | O=C(OC[C@H]1O[C@H](OC(=O)c2cc(O)c(O)c(OC(=O)c3cc(O)c(O)c(O)c3)c2)[C@H](OC(=O)c2cc(O)c(O)c(OC(=O)c3cc(O)c(O)c(O)c3)c2)[C@@H](OC(=O)c2cc(O)c(O)c(OC(=O)c3cc(O)c(O)c(O)c3)c2)[C@@H]1OC(=O)c1cc(O)c(O)c(OC(=O)c2cc(O)c(O)c(O)c2)c1)c1cc(O)c(O)c(OC(=O)c2cc(O)c(O)c(O)c2)c1 [Compound 21, (2R,3R,4S,5R,6R)-6-(((3,4-dihydroxy-5-((3,4,5-trihydroxybenzoyl)oxy)benzoyl)oxy)methyl)tetrahydro-2H-pyran-2,3,4,5-tetrayl tetrakis(3,4-dihydroxy-5-((3,4,5-trihydroxybenzoyl)oxy)benzoate)]
7.93 and 7.92 | – | O=C(OC[C@H]1O[C@@H](OC(=O)c2cc(O)c(O)c(OC(=O)c3cc(O)c(O)c(OC(=O)c4cc(O)c(O)c(O)c4)c3)c2)[C@H](OC(=O)c2cc(O)c(O)c(OC(=O)c3cc(O)c(O)c(OC(=O)c4cc(O)c(O)c(O)c4)c3)c2)[C@@H](OC(=O)c2cc(O)c(O)c(OC(=O)c3cc(O)c(O)c(OC(=O)c4cc(O)c(O)c(O)c4)c3)c2)[C@@H]1OC(=O)c1cc(O)c(O)c(OC(=O)c2cc(O)c(O)c(OC(=O)c3cc(O)c(O)c(O)c3)c2)c1)c1cc(O)c(O)c(OC(=O)c2cc(O)c(O)c(OC(=O)c3cc(O)c(O)c(O)c3)c2)c1 [Compound 37, (2S,3R,4S,5R,6R)-6-(((3-((3,4-dihydroxy-5-((3,4,5-trihydroxybenzoyl)oxy)benzoyl)oxy)-4,5-dihydroxybenzoyl)oxy)methyl)tetrahydro-2H-pyran-2,3,4,5-tetrayl tetrakis(3-((3,4-dihydroxy-5-((3,4,5-trihydroxybenzoyl)oxy)benzoyl)oxy)-4,5-dihydroxybenzoate)]
8.07 and 8.05 | – | O=C(Oc1cccc(OC(=O)c2cc(O)c(O)c(OC(=O)c3cc(O)c(O)c(OC(=O)c4cc(O)c(O)c(OC(=O)c5cc(O)c(O)c(OC(=O)c6cc(O)c(O)c(O)c6)c5)c4)c3)c2)c1)c1cc(O)c(O)c(OC(=O)c2cc(O)c(O)c(OC(=O)c3cc(O)c(O)c(OC(=O)c4cc(O)c(O)c(OC(=O)c5cc(O)c(O)c(O)c5)c4)c3)c2)c1 [Compound 51, 1,3-phenylene bis(3-((3-((3-((3,4-dihydroxy-5-((3,4,5-trihydroxybenzoyl)oxy)benzoyl)oxy)-4,5-dihydroxybenzoyl)oxy)-4,5-dihydroxybenzoyl)oxy)-4,5-dihydroxybenzoate)]
7.76 and 7.77 | – | O=C(Oc1ccccc1)c1cc(O)c(O)c(OC(=O)c2cc(O)c(O)c(OC(=O)c3cc(O)c(O)c(OC(=O)c4cc(O)c(O)c(OC(=O)c5cc(O)c(O)c(OC(=O)c6cc(O)c(O)c(OC(=O)c7cc(O)c(O)c(O)c7)c6)c5)c4)c3)c2)c1 [Compound 48, 5-((5-((5-((5-((5-((2,3-dihydroxy-5-(phenoxycarbonyl)phenoxy)carbonyl)-2,3-dihydroxyphenoxy)carbonyl)-2,3-dihydroxyphenoxy)carbonyl)-2,3-dihydroxyphenoxy)carbonyl)-2,3-dihydroxyphenoxy)carbonyl)-2,3-dihydroxyphenyl 3,4,5-trihydroxybenzoate]
7.71 and 7.70 | – | O=C(OCC1OC(OC(=O)c2cc(O)c(O)c(OC(=O)c3cc(O)c(O)c(O)c3)c2)C(OC(=O)c2cc(O)c(O)c(OC(=O)c3cc(O)c(O)c(O)c3)c2)C(OC(=O)c2cc(O)c(O)c(OC(=O)c3cc(O)c(O)c(O)c3)c2)C1OC(=O)c1cc(O)c(O)c(OC(=O)c2cc(O)c(O)c(O)c2)c1)c1cc(O)c(O)c(OC(=O)c2cc(O)c(O)c(O)c2)c1 (stereo not shown) [Compound 103]
8.24 and 8.22 | – | O=C(Oc1cccc(OC(=O)c2cc(O)c(O)c(OC(=O)c3cc(O)c(O)c(OC(=O)c4cc(O)c(O)c(OC(=O)c5cc(O)c(O)c(OC(=O)c6cc(O)c(O)c(OC(=O)c7cc(O)c(O)c(OC(=O)c8cc(O)c(O)c(O)c8)c7)c6)c5)c4)c3)c2)c1)c1cc(O)c(O)c(OC(=O)c2cc(O)c(O)c(OC(=O)c3cc(O)c(O)c(OC(=O)c4cc(O)c(O)c(OC(=O)c5cc(O)c(O)c(OC(=O)c6cc(O)c(O)c(OC(=O)c7cc(O)c(O)c(O)c7)c6)c5)c4)c3)c2)c1 [Compound 53, 1,3-phenylene bis(3-((3-((3-((3-((3-((3,4-dihydroxy-5-((3,4,5-trihydroxybenzoyl)oxy)benzoyl)oxy)-4,5-dihydroxybenzoyl)oxy)-4,5-dihydroxybenzoyl)oxy)-4,5-dihydroxybenzoyl)oxy)-4,5-dihydroxybenzoyl)oxy)-4,5-dihydroxybenzoate)]

The next lines start with the molecule.

SMILES | pIC50 [1] | logP [2]
O=C(Oc1ccccc1)c1cc(O)c(O)c(OC(=O)c2cc(O)c(O)c(OC(=O)c3cc(O)c(O)c(OC(=O)c4cc(O)c(O)c(OC(=O)c5cc(O)c(O)c(O)c5)c4)c3)c2)c1 [Compound 46, 5-((5-((5-((2,3-dihydroxy-5-(phenoxycarbonyl)phenoxy)carbonyl)-2,3-dihydroxyphenoxy)carbonyl)-2,3-dihydroxyphenoxy)carbonyl)-2,3-dihydroxyphenyl 3,4,5-trihydroxybenzoate] | 7.61 and 7.62 | 2.02
O=C(OC[C@H]1O[C@@H](OC(=O)c2cc(O)c(O)c(O)c2)[C@H](OC(=O)c2cc(O)c(O)c(O)c2)[C@@H](OC(=O)c2cc(O)c(O)c(O)c2)[C@@H]1OC(=O)c1cc(O)c(O)c(O)c1)c1cc(O)c(O)c(O)c1 [Compound 102] | 7.27 and 7.28 | –
O=C(Oc1cc(OC(=O)c2cc(O)c(O)c(OC(=O)c3cc(O)c(O)c(OC(=O)c4cc(O)c(O)c(OC(=O)c5cc(O)c(O)c(OC(=O)c6cc(O)c(O)c(OC(=O)c7cc(O)c(O)c(OC(=O)c8cc(O)c(O)c(O)c8)c7)c6)c5)c4)c3)c2)cc(OC(=O)c2cc(O)c(O)c(OC(=O)c3cc(O)c(O)c(OC(=O)c4cc(O)c(O)c(OC(=O)c5cc(O)c(O)c(OC(=O)c6cc(O)c(O)c(OC(=O)c7cc(O)c(O)c(OC(=O)c8cc(O)c(O)c(O)c8)c7)c6)c5)c4)c3)c2)c1)c1cc(O)c(O)c(OC(=O)c2cc(O)c(O)c(OC(=O)c3cc(O)c(O)c(OC(=O)c4cc(O)c(O)c(OC(=O)c5cc(O)c(O)c(OC(=O)c6cc(O)c(O)c(OC(=O)c7cc(O)c(O)c(O)c7)c6)c5)c4)c3)c2)c1 [Compound 58, benzene-1,3,5-triyl tris(3-((3-((3-((3-((3-((3,4-dihydroxy-5-((3,4,5-trihydroxybenzoyl)oxy)benzoyl)oxy)-4,5-dihydroxybenzoyl)oxy)-4,5-dihydroxybenzoyl)oxy)-4,5-dihydroxybenzoyl)oxy)-4,5-dihydroxybenzoyl)oxy)-4,5-dihydroxybenzoate)] | 8.57 and 8.52 | –
O=C(OC[C@H]1O[C@H](OC(=O)c2cc(O)c(O)c(O)c2)[C@H](OC(=O)c2cc(O)c(O)c(O)c2)[C@@H](OC(=O)c2cc(O)c(O)c(O)c2)[C@@H]1OC(=O)c1cc(O)c(O)c(O)c1)c1cc(O)c(O)c(O)c1 [Compound 101] | 7.27 and 7.29 | –
O=C(OC[C@H]1O[C@H](OC(=O)c2cc(O)c(O)c(OC(=O)c3cc(O)c(O)c(OC(=O)c4cc(O)c(O)c(OC(=O)c5cc(O)c(O)c(O)c5)c4)c3)c2)[C@H](OC(=O)c2cc(O)c(O)c(OC(=O)c3cc(O)c(O)c(OC(=O)c4cc(O)c(O)c(OC(=O)c5cc(O)c(O)c(O)c5)c4)c3)c2)[C@@H](OC(=O)c2cc(O)c(O)c(OC(=O)c3cc(O)c(O)c(OC(=O)c4cc(O)c(O)c(OC(=O)c5cc(O)c(O)c(O)c5)c4)c3)c2)[C@@H]1OC(=O)c1cc(O)c(O)c(OC(=O)c2cc(O)c(O)c(OC(=O)c3cc(O)c(O)c(OC(=O)c4cc(O)c(O)c(O)c4)c3)c2)c1)c1cc(O)c(O)c(OC(=O)c2cc(O)c(O)c(OC(=O)c3cc(O)c(O)c(OC(=O)c4cc(O)c(O)c(O)c4)c3)c2)c1 [Compound 27, (2R,3R,4S,5R,6R)-6-(((3-((3,4-dihydroxy-5-((3,4-dihydroxy-5-((3,4,5-trihydroxybenzoyl)oxy)benzoyl)oxy)benzoyl)oxy)-4,5-dihydroxybenzoyl)oxy)methyl)tetrahydro-2H-pyran-2,3,4,5-tetrayl tetrakis(3-((3,4-dihydroxy-5-((3,4-dihydroxy-5-((3,4,5-trihydroxybenzoyl)oxy)benzoyl)oxy)benzoyl)oxy)-4,5-dihydroxybenzoate)] | 7.96 | 0.6
O=C(Oc1cc(OC(=O)c2cc(O)c(O)c(OC(=O)c3cc(O)c(O)c(OC(=O)c4cc(O)c(O)c(OC(=O)c5cc(O)c(O)c(OC(=O)c6cc(O)c(O)c(O)c6)c5)c4)c3)c2)cc(OC(=O)c2cc(O)c(O)c(OC(=O)c3cc(O)c(O)c(OC(=O)c4cc(O)c(O)c(OC(=O)c5cc(O)c(O)c(OC(=O)c6cc(O)c(O)c(O)c6)c5)c4)c3)c2)c1)c1cc(O)c(O)c(OC(=O)c2cc(O)c(O)c(OC(=O)c3cc(O)c(O)c(OC(=O)c4cc(O)c(O)c(OC(=O)c5cc(O)c(O)c(O)c5)c4)c3)c2)c1 [Compound 56, benzene-1,3,5-triyl tris(3-((3-((3-((3,4-dihydroxy-5-((3,4,5-trihydroxybenzoyl)oxy)benzoyl)oxy)-4,5-dihydroxybenzoyl)oxy)-4,5-dihydroxybenzoyl)oxy)-4,5-dihydroxybenzoate)] | 8.27 and 8.30 | 1.92
